{"source": "patent US20140163100A1", "about": "“Methods of Treating Multiple Sclerosis and Preserving and/or Increasing Myelin Content” (BIOGEN IDEC MA INC., priority 2011, published 2014)", "key": {"[1]": {"experiment": "First Phase 3 clinical trial: safety and tolerability (adverse events)", "type": "in vivo, human", "experimental": "Safety and tolerability were assessed by continuous adverse event (“AE”) monitoring and laboratory tests at all monthly visits. Additionally, physical examination, vital signs, and 12-lead ECG were evaluated. As an ethical consideration, subjects' reconsent was required following any protocol-defined disability progression or relapse."}, "[2]": {"system": "subjects with relapsing-remitting multiple sclerosis", "experiment": "First Phase 3 clinical trial: quality of life (SF-36, VAS)", "type": "in vivo, human", "conditions": "for mean SF-36 PCS score: at 2 years (placebo 42.0); for SF-36 Mental Component Scale score: at 2 years (placebo 44.6); for mean VAS score (global impression of well-being): at 2 years (placebo 60.3)", "experimental": "Subjects participating in the study described in Example 1 were provided an SF-36 questionnaire to measure the subjects' health status and health-related quality of life (“QoL”) at baseline, 6, 12, and 24 months, on eight multi-item, 100-point scales, with higher scores indicating higher QoL. These scores were used to calculate the Physical Component Summary (“PCS”) and Mental Component Summary (“MCS”) scores. In addition, the subjects' global impression of well-being was assessed at baseline and every 3 months using a 100-point, visual analogue scale (VAS) with higher score indicating improvement in well-being."}, "[3]": {"system": "subjects with relapsing-remitting multiple sclerosis", "experiment": "First Phase 3 clinical trial: relapse and disability efficacy", "type": "in vivo, human", "conditions": "for reduction of ARR vs placebo / reduction of risk of confirmed, 12-week disability progression: 2 years; for annualized relapse rate (ARR): 2 years (placebo 0.36); for reduction of risk of confirmed, 12-week disability progression: EDSS; for reduction of proportion of subjects relapsing compared with placebo: at 2 years", "experimental": "The primary endpoint of the study in Example 1 was the proportion of subjects relapsing at 2 years, with relapses confirmed by an independent neurology evaluation committee (“INEC”) to ensure consistent and accurate reporting across sites. Secondary clinical efficacy endpoints at 2 years were the annualized relapse rate (“ARR”) and disability progression using EDSS. Efficacy analyses were conducted on the intention-to-treat population."}, "[4]": {"system": "mouse MS model", "experiment": "Mouse MS model, neuroprotective effects", "type": "in vivo", "conditions": "mouse MS model with features of advanced stages of chronic forms of MS", "description": "Although many well characterized rodent and primate models for MS exist, only recently have the characteristic features of progressive MS been identified in select animal models."}, "[5]": {"system": "subjects with relapsing-remitting multiple sclerosis", "experiment": "First Phase 3 clinical trial: MRI lesion loads", "type": "in vivo, human", "conditions": "2 years", "experimental": "Subjects from 76 sites out of 198 participating in the study described in Example 1 had MRI scans at baseline, 24 weeks, 1 year and 2 years. Number of new or newly enlarging T2 lesions and number of gadolinium-enhancing (Gd+) lesions at 2 years were secondary endpoints of the study. Analyses were conducted on the MRI intention-to-treat population."}, "[6]": {"conditions": "human, in vivo", "protocol": "A second randomized, double-blind, placebo-controlled, multicenter, phase 3 clinical trial was conducted to evaluate the efficacy and safety of dimethyl fumarate over 2 years in subjects with relapsing-remitting multiple sclerosis (“RR-MS”).\nSubjects 18-55 years of age with RR-MS and an Expanded Disability Status Scale score of 0.0-5.0 (inclusive) and having one or more relapses in the prior 12 months or one or more Gd^+ lesions in the prior 6 weeks were eligible for enrolment. Subjects were randomly assigned to placebo, dimethyl fumarate 240 mg PO twice daily (BID), dimethyl fumarate three times daily (TID), glatiramer acetate 20 mg SC once daily (QD)."}, "[7]": {"system": "subjects with relapsing-remitting multiple sclerosis", "experiment": "First Phase 3 clinical trial: magnetization transfer ratio (MTR) substudy", "type": "in vivo, human", "description": "The study described in Example 1 included a substudy to examine change in magnetization transfer ratio (“MTR”) with treatment. MTR imaging has been proposed for use as a biomarker of changes in the myelin content of brain white matter. The aim of the study was to determine change in brain and lesion MTR in RR-MS. MTR scans were obtained in a subset of subjects at baseline and 6, 12 and 24 months, using manufacturer-supplied MT pulse sequences. MTR substudies were implemented at 64 of 76 MRI sites (84%) and included a total of 540 subjects: 176 in the dimethyl fumarate 240 mg bid group, 184 in the dimethyl fumarate 240 mg tid group, and 180 in the placebo group."}}, "note": "Structures can show the parent of a compound that is named as a salt. Where two headings read alike, the source gives them in different places.", "data": [{"compound": "COC(=O)/C=C/C(=O)OC", "note": "[dimethyl fumarate]", "values": [{"measurement": "deaths", "setting": "[1]; dimethyl fumarate TID arm, result of a motor vehicle accident", "result": "One death"}, {"measurement": "MS relapse reported as AE", "setting": "[1]; human, in vivo", "result": 27, "unit": "%"}, {"measurement": "opportunistic infections", "setting": "[1]; human, in vivo", "result": "no opportunistic infections were observed"}, {"measurement": "AEs reported by subjects", "setting": "[1]; human, in vivo, 2 years", "result": 95, "unit": "%"}, {"measurement": "Incidence of infections and infestations", "setting": "[1]; human, in vivo, 2 years", "result": "64-68%"}, {"measurement": "Incidence of severe infections and infestations", "setting": "[1]; human, in vivo, 2 years", "result": "2-3%"}, {"measurement": "Severe AEs reported", "setting": "[1]; human, in vivo, 2 years", "result": 17, "unit": "%"}, {"measurement": "subjects discontinuing treatment due to AEs (number)", "setting": "[1]; human, in vivo, 2 years", "result": 68}, {"measurement": "subjects discontinuing treatment due to AEs (percent)", "setting": "[1]; human, in vivo, 2 years", "result": 16, "unit": "%"}, {"measurement": "subjects reporting flushing", "setting": "[1]; human, in vivo, 2 years", "result": 32, "unit": "%"}, {"measurement": "subjects withdrew from the study", "setting": "[1]; human, in vivo, 2 years", "result": "approximately 23%"}, {"measurement": "mean SF-36 PCS score", "setting": "[2]; 240 mg BID", "result": 43.4}, {"measurement": "SF-36 Mental Component Scale score", "setting": "[2]; 240 mg BID", "result": 45.5}, {"measurement": "mean VAS score (global impression of well-being)", "setting": "[2]; 240 mg BID", "result": 64.3}, {"measurement": "mean SF-36 PCS score", "setting": "[2]; TID", "result": 44.2}, {"measurement": "SF-36 Mental Component Scale score", "setting": "[2]; TID", "result": 46.1}, {"measurement": "mean VAS score (global impression of well-being)", "setting": "[2]; TID", "result": 65.7}, {"measurement": "reduction of ARR vs placebo", "setting": "[3]; 240 mg BID", "result": 53, "unit": "%"}, {"measurement": "annualized relapse rate (ARR)", "setting": "[3]; 240 mg BID", "result": 0.17}, {"measurement": "reduction of risk of confirmed, 12-week disability progression", "setting": "[3]; 240 mg BID", "result": 38, "unit": "%"}, {"measurement": "Annualized relapse rate at 2 years, % Reduction vs. Placebo", "setting": "[3]; 240 mg BID, <40 years", "result": 63, "unit": "%"}, {"measurement": "Proportion of patients relapsed at 2 years, % Reduction vs. Placebo", "setting": "[3]; 240 mg BID, <40 years", "result": 59, "unit": "%"}, {"measurement": "Time to confirmed disability progression at 2 years, % Reduction vs. Placebo", "setting": "[3]; 240 mg BID, <40 years", "result": 62, "unit": "%"}, {"measurement": "reduction of proportion of subjects relapsing compared with placebo", "setting": "[3]; 240 mg BID", "result": 49, "unit": "%"}, {"measurement": "Annualized relapse rate at 2 years, % Reduction vs. Placebo", "setting": "[3]; 240 mg BID, ≧40 years", "result": 34, "unit": "%"}, {"measurement": "Proportion of patients relapsed at 2 years, % Reduction vs. Placebo", "setting": "[3]; 240 mg BID, ≧40 years", "result": 26, "unit": "%"}, {"measurement": "Time to confirmed disability progression at 2 years, % Reduction vs. Placebo", "setting": "[3]; 240 mg BID, ≧40 years", "result": 8, "unit": "%"}, {"measurement": "Annualized relapse rate at 2 years, % Reduction vs. Placebo", "setting": "[3]; 240 mg TID, <40 years", "result": 59, "unit": "%"}, {"measurement": "Proportion of patients relapsed at 2 years, % Reduction vs. Placebo", "setting": "[3]; 240 mg TID, <40 years", "result": 56, "unit": "%"}, {"measurement": "Time to confirmed disability progression at 2 years, % Reduction vs. Placebo", "setting": "[3]; 240 mg TID, <40 years", "result": 38, "unit": "%"}, {"measurement": "Annualized relapse rate at 2 years, % Reduction vs. Placebo", "setting": "[3]; 240 mg TID, ≧40 years", "result": 29, "unit": "%"}, {"measurement": "Proportion of patients relapsed at 2 years, % Reduction vs. Placebo", "setting": "[3]; 240 mg TID, ≧40 years", "result": 37, "unit": "%"}, {"measurement": "Time to confirmed disability progression at 2 years, % Reduction vs. Placebo", "setting": "[3]; 240 mg TID, ≧40 years", "result": 32, "unit": "%"}, {"measurement": "reduction of ARR vs placebo", "setting": "[3]; TID", "result": 48, "unit": "%"}, {"measurement": "annualized relapse rate (ARR)", "setting": "[3]; TID", "result": 0.19}, {"measurement": "reduction of risk of confirmed, 12-week disability progression", "setting": "[3]; TID", "result": "approximately 34%"}, {"measurement": "reduction of proportion of subjects relapsing compared with placebo", "setting": "[3]; TID", "result": 50, "unit": "%"}, {"measurement": "efficacy by age subgroup", "setting": "[3]; subjects under 40 years vs 40 years or older, 240 mg BID and TID", "result": "more efficacious in subjects under 40 years of age"}, {"measurement": "neuroprotective effects", "setting": "[4]", "result": "reduction in demyelination and axonal damage"}, {"measurement": "reduction of mean number of Gd+ lesions compared with placebo", "setting": "[5]; 240 mg BID", "result": 94, "unit": "%"}, {"measurement": "reduction of mean number of new or newly enlarging T2 lesions compared with placebo", "setting": "[5]; 240 mg BID", "result": 85, "unit": "%"}, {"measurement": "reduction of mean number of Gd+ lesions compared with placebo", "setting": "[5]; TID", "result": 72, "unit": "%"}, {"measurement": "reduction of mean number of new or newly enlarging T2 lesions compared with placebo", "setting": "[5]; TID", "result": 74, "unit": "%"}, {"measurement": "most frequently reported AEs associated with dimethyl fumarate", "setting": "[6]", "result": "flushing, diarrhea, nausea, upper respiratory tract infection, abdominal pain, and proteinuria"}, {"measurement": "AEs reported by subjects", "setting": "[6]; 2 years", "result": 92, "unit": "%"}, {"measurement": "subjects discontinuing treatment due to AEs (number)", "setting": "[6]; 2 years", "result": 41}, {"measurement": "subjects discontinuing treatment due to AEs (percent)", "setting": "[6]; 2 years", "result": 12, "unit": "%"}, {"measurement": "subjects withdrew from the study", "setting": "[6]; 2 years", "result": 21, "unit": "%"}, {"measurement": "increase from baseline in whole brain MTR", "setting": "[7]; 240 mg bid (placebo −0.386%)", "result": 0.129, "unit": "%"}, {"measurement": "increase from baseline in normal appearing brain tissue MTR", "setting": "[7]; 240 mg bid (placebo −0.392%)", "result": 0.190, "unit": "%"}, {"measurement": "increase from baseline in whole brain MTR", "setting": "[7]; 240 mg tid (placebo −0.386%)", "result": 0.096, "unit": "%"}, {"measurement": "increase from baseline in normal appearing brain tissue MTR", "setting": "[7]; 240 mg tid (placebo −0.392%)", "result": 0.115, "unit": "%"}]}]}
